US20230365563A1, “QUINAZOLINE COMPOUND AND APPLICATION THEREOF” (SHANGHAI PHARMACEUTICALS HOLDING CO., LTD., priority 2020, published 2023)
Structures can show the parent of a compound that is named as a salt.

Target: T1, KRAS-G12D and SOS1 (Homo sapiens, UniProt P01116, G12D)
T1 construct: purchased
Test: Inhibition of KRAS-G12D/SOS1 binding (Cisbio binding kit, 665/615 ratio), Effect Embodiment A
Conditions: read-out: GTP-KRAS-G12D:SOS1 IC50
Outline: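 Compounds are tested over eleven threefold dilution steps in duplicate, with final DMSO at 1%.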

T1 sequence (P01116 1-188 isoform P01116-2 G12D): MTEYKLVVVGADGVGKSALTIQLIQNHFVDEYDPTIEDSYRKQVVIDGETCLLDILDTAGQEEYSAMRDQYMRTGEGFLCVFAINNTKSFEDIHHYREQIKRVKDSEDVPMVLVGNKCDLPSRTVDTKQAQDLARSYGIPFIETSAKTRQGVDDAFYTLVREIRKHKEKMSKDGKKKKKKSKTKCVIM

SMILES | IC50
CCc1c(F)ccc2cc(O)cc(-c3c(F)cc4c(N5CC6CCC(C5)N6)nc(OCCCN5C6CCC5COC6)nc4c3F)c12 (single isomer, unassigned) [Compound 215b, 4-((7R or 7S)-2-(3-(3-oxa-8-azabicyclo[3.2.1]octan-8-yl)propoxy)-4-((1R,5S)-3,8-diazabicyclo[3.2.1]octan-3-yl)-6,8-difluoroquinazolin-7-yl)-5-ethyl-6-fluoronaphthalen-2-ol diformate] | 1.58 µM
C[C@@H](COc1nc(N2CC3CCC(C2)N3)c2cc(Cl)c(-c3cc(O)cc4ccccc34)c(F)c2n1)CN1CC(C)(C)OC(C)(C)C1 (single isomer, unassigned) [Compound 217, 4-((S or R)-4-((1R,5S)-3,8-diazabicyclo[3.2.1]octan-3-yl)-6-chloro-8-fluoro-2-((R)-2-methyl-3-(2,2,6,6-tetramethylmorpholinyl)propoxy)quinazolin-7-yl)naphthalen-2-ol formate] | 0.191 µM
Oc1cc(-c2c(Cl)cc3c(N4CC5CCC(C4)N5)nc(OCC(CN4C5CCC4COC5)C(F)(F)F)nc3c2F)c2ccccc2c1 (single isomer, unassigned) [Compound 218b, 4-((7S or 7R)-2-((2R or 2S)-2-((3-oxa-8-azabicyclo[3.2.1]octan-8-yl)methyl)-3,3,3-trifluoropropoxy)-4-((1R,5S)-3,8-diazabicyclo[3.2.1]octan-3-yl)-6-chloro-8-fluoroquinazolin-7-yl)naphthalen-2-ol formate] | 0.25 µM
CC1(C)CN(CCCOc2nc(N3CC4CCC(C3)N4)c3cc(Cl)c(-c4cc(O)cc5ccccc45)c(F)c3n2)CC(C)(C)O1 (single isomer, unassigned) [Compound 222, 4-((S or R)-4-((1R,5S)-3,8-diazabicyclo[3.2.1]octan-3-yl)-6-chloro-8-fluoro-2-(3-(2,2,6,6-tetramethylmorpholinyl)propoxy)quinazolin-7-yl)naphthalen-2-ol formate] | 0.581 µM
CCc1c(F)ccc2cc(O)cc(-c3c(Cl)cc4c(N5CC6CCC(C5)N6)nc(OC[C@H](C)CN5C6CCC5COC6)nc4c3F)c12 (single isomer, unassigned) [Compound 233a, 4-((7S or 7R)-2-((2R)-3-(3-oxa-8-azabicyclo[3.2.1]octan-8-yl)-2-methylpropoxy)-4-((1R,5S)-3,8-diazabicyclo[3.2.1]octan-3-yl)-6-chloro-8-fluoroquinazolin-7-yl)-5-ethyl-6-fluoronaphthalen-2-ol formate] | 3.28 µM
CCc1c(F)ccc2cc(O)cc(-c3c(F)cc4c(N5CC6CCC(C5)N6)nc(OCCCN5C[C@@H](C)O[C@@H](C)C5)nc4c3F)c12 (single isomer, unassigned) [Compound 250b, (R or S)-4-(4-((1R,5S)-3,8-diazacyclo[3.2.1]octan-3-yl)-2-(3-((2R,6S)-2,6-dimethylmorpholinyl)propoxy)-6,8-difluoroquinazolin-7-yl)-5-ethyl-6-fluoronaphthalen-2-ol formate] | 1.63 µM
C#Cc1c(F)ccc2cc(O)cc(-c3c(Cl)cc4c(N5CC6CCC(C5)N6)nc(OCCCN5C6CCC5COC6)nc4c3F)c12 (single isomer, unassigned) [Compound 255a, (4S or 4R)-4-(2-(3-(3-oxa-8-azabicyclo[3.2.1]octan-8-yl)propoxy)-4-(1R,5S)-3,8-diazabicyclo[3.2.1]octan-3-yl)-6-chloro-8-fluoroquinazolin-7-yl)-5-ethynyl-6-fluoronaphthalen-2-ol diformate] | 5.12 µM
CCc1cccc2cc(O)cc(-c3c(F)cc4c(N5CC6CCC(C5)N6)nc(OCCCN5C6CCC5COC6)nc4c3F)c12 (single isomer, unassigned) [Compound 271b, 4-((7R or 7S)-2-(3-(3-oxa-8-azabicyclo[3.2.1]octan-8-yl)propoxy)-4-((1R,5S)-3,8-diazabicyclo[3.2.1]octan-3-yl)-6,8-difluoroquinazolin-7-yl)-5-ethylnaphthalen-2-ol diformate] | 9.41 µM
C#Cc1cccc2cc(O)cc(-c3c(F)cc4c(N5CC6CCC(C5)N6)nc(OCCCN5C6CCC5COC6)nc4c3F)c12 (single isomer, unassigned) [Compound 273b, 4-((7R or 7S)-2-(3-(3-oxa-8-azabicyclo[3.2.1]octan-8-yl)propoxy)-4-((1R,5S)-3,8-diazabicyclo[3.2.1]octan-3-yl)-6,8-difluoroquinazolin-7-yl)-5-ethynylnaphthalen-2-ol diformate] | 1.85 µM
N#Cc1cccc2cc(O)cc(-c3c(F)cc4c(N5CC6CCC(C5)N6)nc(OCCCN5C6CCC5COC6)nc4c3F)c12 (single isomer, unassigned) [Compound 278b, 8-((7R or 7S)-2-(3-(3-oxa-8-azabicyclo[3.2.1]octan-8-yl)propoxy)-4-((1R,5S)-3,8-diazabicyclo[3.2.1]octan-3-yl)-6,8-difluoroquinazolin-7-yl)-6-hydroxy-1-naphthonitrile diformate] | 2.48 µM
C#Cc1c(F)ccc2cccc(-c3c(F)cc4c(N5CC6CCC(C5)N6)nc(OC[C@@]56CCCN5C[C@H](F)C6)nc4c3F)c12 (single isomer, unassigned) [Compound 279b, (R or S)-4-((1R,5S)-3,8-diazacyclo[3.2.1]octyl-3-yl)-7-(8-ethynyl-7-fluoronaphthalen-1-yl)-6,8-difluoro-2-((2R,7aS)-2-fluorotetrahydro-1H-pyrrolidin-7a(5H)-yl)methoxy)quinazoline formate] | 1.39 µM
CCc1c(F)ccc2cccc(-c3c(F)cc4c(N5CC6CCC(C5)N6)nc(OC[C@@]56CCCN5C[C@H](F)C6)nc4c3F)c12 (single isomer, unassigned) [Compound 280b, 4-((1R,5S)-3,8-diazacyclo[3.2.1]octan-3-yl)-7-((R or S)-8-ethyl-7-fluoronaphthalen-1-yl)-6,8-difluoro-2-((2R,7aS)-2-fluorotetrahydro-1H-pyrrolidin-7a(5H)-yl)methoxy)quinazoline dihydrochloride] | 0.31 µM
CCc1cccc2cccc(-c3c(F)cc4c(N5CC6CCC(C5)N6)nc(OC[C@@]56CCCN5C[C@H](F)C6)nc4c3F)c12 (single isomer, unassigned) [Compound 281b, (R or S)-4-((1R,5S)-3,8-diazacyclo[3.2.1]octan-3-yl)-7-(8-ethylnaphthalen-1-yl)-6,8-difluoro-2-((2R,7aS)-2-fluorotetrahydro-1H-pyrrolin-7a(5H)-yl)methoxy)quinazoline dihydrochloride] | 0.449 µM
CCc1cccc2cc(O)cc(-c3c(F)cc4c(N5CC6CCC(C5)N6)nc(OCCCN5CCOC[C@H]5C)nc4c3F)c12 (single isomer, unassigned) [Compound 282b, (R or S)-4-(4-((1R,5S)-3,8-diazacyclo[3.2.1]octan-3-yl)-6,8-difluoro-2-(3-((R)-3-methylmorpholinyl)propoxy)quinazolin-7-yl)-5-ethylnaphthalen-2-ol dihydrochloride] | 5.07 µM
CCc1cccc2cc(O)cc(-c3c(F)cc4c(N5CC6CCC(C5)N6)nc(OCCCN5C[C@@H](C)O[C@@H](C)C5)nc4c3F)c12 (single isomer, unassigned) [Compound 283b, (R or S)-4-(4-((1R,5S)-3,8-diazacyclo[3.2.1]octan-3-yl)-2-(3-((2S,6R)-2,6-dimethylmorpholinyl)propoxy)-6,8-difluoroquinazolin-7-yl)-5-ethylnaphthalen-2-ol dihydrochloride] | 9.18 µM
CCc1cccc2cc(O)cc(-c3c(F)cc4c(N5CC6CCC(C5)N6)nc(OC[C@H](C)CN5C6CCC5COC6)nc4c3F)c12 (single isomer, unassigned) [Compound 284b, (4R or 4S)-4-(2-((2R)-3-(3-oxa-8-azabicyclo[3.2.1]octan-8-yl)-2-methylpropoxy)-4-((1R,5S)-3,8-diazabicyclo[3.2.1]octan-3-yl)-6,8-difluoroquinazolin-7-yl)-5-ethylnaphthalen-2-o1 dihydrochloride] | 2.01 µM
CCc1cccc2cc(O)cc(-c3c(F)cc4c(N5CC6CCC(C5)N6)nc(OC[C@@]56CCCN5C[C@H](F)C6)nc4c3F)c12 (single isomer, unassigned) [Compound 285b, (R or S)-4-(4-((1R,5S)-3,8-diazacyclo[3.2.1]octan-3-yl)-6,8-difluoro-2-((2R,7aS)-2-fluorotetrahydro-1H-pyrrolidin-7a(5H-yl)methoxy)quinazolin-7-yl)-5-ethylnaphthalen-2-ol dihydrochloride] | 1.46 µM
CN(C)C1CN(c2nc(C3CCNCC3)c3cc(Cl)c(-c4cc(O)cc5ccccc45)c(F)c3n2)C1 [Compound 20a, (R or S)-4-(6-chloro-2-(3-(dimethylamino)azetidin-1l-yl)-8-fluoro-4-(piperidin-4-yl)quninazolin-7-yl)naphthalen-2-ol] | 4.8 µM
CN(C)CCCOc1nc2c(c(N3CCNCC3)n1)CCN(c1cc(O)cc3ccccc13)C2 [Compound 73, 4-(2-(3-(Dimethylamino)propoxy)-4-(piperazin-1-yl)-5,8-dihydropyrido[3,4-d]pyrimidin-7(6H)-yl)naphthalen-2-ol] | 15.7 µM
CN(C)C1CN(c2nc(N3CC(C(=N)N)C3)c3cc(Cl)c(-c4cc(O)cc5ccccc45)c(F)c3n2)C1 [Compound 77, (S)-1-(6-chloro-2-(3-(dimethylamino)azetidin-1-yl)-8-fluoro-7-(3-hydroxynaphthalen-1-yl)quinazolin-4-yl)azetidine-3-carboximidamide] | 1.03 µM
Oc1cc(-c2ncc3c(N4C[C@H]5CC[C@@H](C4)N5)nc(Oc4ccncc4)nc3c2F)c2ccccc2c1 [Compound 130, 4-(4-((1R,5S)-3,8-diazabicyclo[3.2.1]octan-3-yl)-8-fluoro-2-(pyridinyl-4-oxy)pyridyl[4,3-d]pyrimidin-7-yl)naphthalen-2-ol hydrochloride] | 0.842 µM
Cn1ccnc1COc1nc(N2C[C@H]3CC[C@@H](C2)N3)c2cnc(-c3cc(O)cc4ccccc34)c(F)c2n1 [Compound 132, 4-(4-((1R,5S)-3,8-diazabicyclo[3.2.1]octan-3-yl)-8-fluoro-2-((1-methyl-1H-imidazol-2-yl)methoxy)pyridinyl[4,3-d]pyrimidin-7-yl)naphthalen-2-ol trifluoroacetate] | 0.762 µM
